Experimental data from ChEMBL document CHEMBL5034015, “Structure-Based Optimization of 3-Phenyl-N-(2-(3-phenylureido)ethyl)thiophene-2-sulfonamide Derivatives as Selective Mcl-1 Inhibitors” (J Med Chem, 2021).
Calls of active or inactive are those of the source.

What was measured:
HL-60 = assay: cells; details: Homo sapiens, HL-60, 48 h
Description: Cytotoxicity against human HL-60 cells assessed as inhibition of cell growth incubated for 48 hrs by CCK8 assay

[1] = target: Induced myeloid leukemia cell differentiation protein Mcl-1 (Homo sapiens, UniProt Q07820); assay: Binding affinity to full length human MCL1 expressed in Escherichia coli BL21 (DE3) at up to 100 uM preincubated for 30 mins followed by 5-FAM-QEDIIIINIARHLAQVGDSMD-RSIPPG tracer addition and measured after 20 mins by fluorescence polarization assay; details: dose microM <=100, time 50.0 min
RS4-11 = assay: cells; details: Homo sapiens, RS4-11, 48 h
Description: Cytotoxicity against human RS4-11 cells assessed as inhibition of cell growth incubated for 48 hrs by CCK8 assay

HeLa = assay: cells; details: Homo sapiens, 48 h
Description: Cytotoxicity against human HeLa cells assessed as inhibition of cell growth incubated for 48 hrs by CCK8 assay

Bcl-2-like protein 1 = Bcl-2-like protein 1 (Homo sapiens, UniProt Q07817); assay: Binding affinity to full length human Bcl-xl expressed in Escherichia coli BL21 (DE3) at up to 100 uM preincubated for 30 mins followed by 5-FAM-QEDIIIINIARHLAQVGDSMD-RSIPPG tracer addition and measured after 20 mins by fluorescence polarization assay; details: dose microM <=100, time 50.0 min
[2] = target: Apoptosis regulator Bcl-2 (Homo sapiens, UniProt P10415); assay: Binding affinity to full length human Bcl-2 expressed in Escherichia coli BL21 (DE3) at up to 100 uM preincubated for 30 mins followed by 5-FAM-QEDIIIINIARHLAQVGDSMD-RSIPPG tracer addition and measured after 20 mins by fluorescence polarization assay; details: dose microM <=100, time 50.0 min
HEK-293T = assay: Cytotoxicity against HEK293T cells assessed as reduction in cell viability incubated for 48 hrs by CCK8 assay; details: Homo sapiens

Chain of Induced myeloid leukemia cell differentiation protein Mcl-1 (Q07820 whole entry): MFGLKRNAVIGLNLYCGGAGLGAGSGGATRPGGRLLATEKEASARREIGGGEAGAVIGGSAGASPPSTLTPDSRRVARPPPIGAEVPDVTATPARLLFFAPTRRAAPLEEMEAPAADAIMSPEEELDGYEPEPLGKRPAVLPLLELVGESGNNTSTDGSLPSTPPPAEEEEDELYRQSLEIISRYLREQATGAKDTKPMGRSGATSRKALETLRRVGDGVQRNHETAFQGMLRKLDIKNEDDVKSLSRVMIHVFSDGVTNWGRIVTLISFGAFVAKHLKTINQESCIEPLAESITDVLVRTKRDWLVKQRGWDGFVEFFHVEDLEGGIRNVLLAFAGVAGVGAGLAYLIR
Chain of Apoptosis regulator Bcl-2 (P10415 whole entry): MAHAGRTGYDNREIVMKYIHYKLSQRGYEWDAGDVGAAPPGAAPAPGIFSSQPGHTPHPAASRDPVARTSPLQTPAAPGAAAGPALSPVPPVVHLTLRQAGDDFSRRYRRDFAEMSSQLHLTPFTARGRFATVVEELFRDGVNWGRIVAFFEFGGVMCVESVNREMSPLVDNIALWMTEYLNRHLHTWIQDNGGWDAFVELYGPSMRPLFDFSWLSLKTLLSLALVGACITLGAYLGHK
Chain of Bcl-2-like protein 1 (Q07817 whole entry): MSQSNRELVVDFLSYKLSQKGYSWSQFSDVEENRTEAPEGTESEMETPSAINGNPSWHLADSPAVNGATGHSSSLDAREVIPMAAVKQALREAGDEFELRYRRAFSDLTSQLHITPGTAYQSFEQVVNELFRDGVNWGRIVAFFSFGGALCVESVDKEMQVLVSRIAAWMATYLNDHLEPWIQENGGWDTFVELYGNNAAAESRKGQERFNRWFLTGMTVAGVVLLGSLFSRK

IC50 (HL-60) [µM]	Activity [1]	IC50 (RS4-11) [µM]	IC50 (HeLa) [µM]	Activity (Bcl-2-like protein 1)	Activity [2]	Compound	IC50 (HEK-293T) [µM]
> 50	inactive	> 50	8.4	inactive	inactive	O=S(=O)(NCCNC(=S)Nc1cccc(Cl)c1)c1ccc(-c2ccccc2OCc2ccccc2)s1	10.2
3.1	inactive	9.3	14.1	inactive	inactive	O=C(NCCNS(=O)(=O)c1ccc(-c2ccccc2O[C@H]2CC[C@@H](O)CC2)s1)Nc1cc(C(F)(F)F)cc(C(F)(F)F)c1	14.1
> 50	inactive	> 50	4.6	inactive	inactive	O=[N+]([O-])c1ccc(Oc2ccccc2-c2ccc(S(=O)(=O)NCCNC(=S)Nc3cccc(Cl)c3)s2)cc1	4.99
6.5	inactive	9	11.6	inactive	inactive	COc1ccc(Oc2ccc(C(C)C)cc2-c2ccsc2S(=O)(=O)NCCNC(=O)Nc2cc(Cl)cc(Cl)c2)cc1OC	11.9
9.1	inactive	3.6	12	inactive	inactive	Cc1cc(C)cc(NC(=O)NCCNS(=O)(=O)c2ccc(-c3ccccc3Oc3ccc([N+](=O)[O-])c([N+](=O)[O-])c3)s2)c1	> 50
3.6	inactive	7.5	> 20	inactive	inactive	COc1cccc(NC(=O)NCCNS(=O)(=O)c2sccc2-c2ccc(C)cc2Oc2ccc(O)c(O)c2)c1	> 20
> 20	inactive	5.8	> 20	inactive	inactive	Cc1cc(C)cc(NC(=O)NCCNS(=O)(=O)c2ccc(-c3ccccc3OCc3cccc(O)c3)s2)c1	> 20
> 20	inactive	12.4	> 20	inactive	inactive	O=C(NCCNS(=O)(=O)c1ccc(-c2ccccc2O[C@H]2CC[C@@H](O)CC2)s1)Nc1ccc([N+](=O)[O-])cc1	8.6
7.4	inactive	11.7	11.6	inactive	inactive	COc1ccc(Oc2ccc(C(C)C)cc2-c2ccsc2S(=O)(=O)NCCNC(=O)Nc2cc(C(F)(F)F)cc(C(F)(F)F)c2)cc1OC	12.1
2.1	inactive	> 50	4.7	inactive	inactive	O=S(=O)(NCCNC(=S)Nc1cc(C(F)(F)F)cc(C(F)(F)F)c1)c1ccc(-c2ccccc2OCc2ccccc2)s1	8.5
6.1	inactive	8.2	> 20	inactive	inactive	COc1ccc(NC(=O)NCCNS(=O)(=O)c2sccc2-c2ccc(C)cc2Oc2ccc(O)c(O)c2)cc1	> 20
1.8	inactive	5.8	10.7	inactive	inactive	O=S(=O)(NCCNC(=S)Nc1cccc(Cl)c1)c1ccc(-c2ccccc2OCc2cccc(O)c2)s1	17.4
2.6	inactive	6.3	10.9	inactive	inactive	O=S(=O)(NCCNC(=S)Nc1cc(C(F)(F)F)cc(C(F)(F)F)c1)c1ccc(-c2ccccc2O[C@H]2CC[C@@H](O)CC2)s1	> 20
11.6	inactive	1.5	5.4	inactive	inactive	O=[N+]([O-])c1ccc(NC(=S)NCCNS(=O)(=O)c2ccc(-c3ccccc3O[C@H]3CC[C@H](O)CC3)s2)cc1	10.5
> 20	inactive	14.1	> 20	inactive	inactive	O=C(NCCNS(=O)(=O)c1ccc(-c2ccccc2O[C@H]2CC[C@H](O)CC2)s1)Nc1cc(Cl)cc(Cl)c1	> 50
2.8	inactive	> 50	> 50	inactive	inactive	O=C(NCCNS(=O)(=O)c1ccc(-c2ccccc2OCc2cccc(O)c2)s1)Nc1cc(Cl)cc(Cl)c1	> 20
0.34	inactive	3	> 20	inactive	inactive	O=C(NCCNS(=O)(=O)c1ccc(-c2ccccc2Oc2ccc([N+](=O)[O-])c([N+](=O)[O-])c2)s1)Nc1ccc([N+](=O)[O-])cc1	16.6
11.4	inactive	> 50	13.5	inactive	inactive	O=C(NCCNS(=O)(=O)c1ccc(-c2ccccc2OCc2ccccc2)s1)Nc1cc(C(F)(F)F)cc(C(F)(F)F)c1	> 20
8.8	inactive	5.1	> 20	inactive	inactive	CC(C)c1ccc(Oc2ccc(O)c(O)c2)c(-c2ccsc2S(=O)(=O)NCCNC(=S)Nc2ccc([N+](=O)[O-])cc2)c1	16.3
11.4	inactive	9.8	11.1	inactive	inactive	O=[N+]([O-])c1cccc(NC(=S)NCCNS(=O)(=O)c2ccc(-c3ccccc3OCc3cccc(O)c3)s2)c1	13.8
1.9	inactive	2.4	> 50	inactive	inactive	O=C(NCCNS(=O)(=O)c1ccc(-c2ccccc2Oc2ccc([N+](=O)[O-])c([N+](=O)[O-])c2)s1)Nc1cc(C(F)(F)F)cc(C(F)(F)F)c1	> 50
7.2	inactive	6.3	9.9	inactive	inactive	O=[N+]([O-])c1ccc(Oc2ccccc2-c2ccc(S(=O)(=O)NCCNC(=S)Nc3cc(C(F)(F)F)cc(C(F)(F)F)c3)s2)cc1	6
4.1	inactive	8.3	> 20	inactive	inactive	COc1ccc(NC(=S)NCCNS(=O)(=O)c2sccc2-c2ccc(C)cc2Oc2ccc(O)c(O)c2)cc1	> 20
8.9	inactive	4.1	10.5	inactive	inactive	O=C(NCCNS(=O)(=O)c1ccc(-c2ccccc2O[C@H]2CC[C@H](O)CC2)s1)Nc1ccc([N+](=O)[O-])cc1	9
5.4	inactive	1.4	> 20	inactive	inactive	COc1ccc(NC(=O)NCCNS(=O)(=O)c2ccc(-c3ccccc3Oc3ccc([N+](=O)[O-])c([N+](=O)[O-])c3)s2)cc1	18.5
> 50	inactive	12	14.9	inactive	inactive	O=S(=O)(NCCNC(=S)Nc1cc(C(F)(F)F)cc(C(F)(F)F)c1)c1ccc(-c2ccccc2OCc2cccc(O)c2)s1	> 20
> 50	inactive	9.4	> 20	inactive	inactive	O=[N+]([O-])c1ccc(NC(=S)NCCNS(=O)(=O)c2ccc(-c3ccccc3O[C@H]3CC[C@@H](O)CC3)s2)cc1	20
2.3	inactive	2.1	> 20	inactive	inactive	O=C(NCCNS(=O)(=O)c1ccc(-c2ccccc2Oc2ccc([N+](=O)[O-])c([N+](=O)[O-])c2)s1)Nc1cc(Cl)cc(Cl)c1	> 20
4	inactive	3	17.3	inactive	inactive	O=C(NCCNS(=O)(=O)c1ccc(-c2ccccc2OCc2cccc(O)c2)s1)Nc1cc(C(F)(F)F)cc(C(F)(F)F)c1	> 20
